The values below come from patent US11136301B2, “Broad spectrum antiviral compounds and uses thereof” (The Regents Of The University Of California, priority 2015, dated 2021).

Read-outs that look alike come from different tables or passages of the source.

In assay [1] the test system is wild-type HIV-1 (HIV-1LAI) in H9 cells (non-permissive). The experiment in a line: microbe, parasite or virus in culture. It counts as cell-based.
Assay [2] concerns wild-type HIV-1 (HIV-1LAI) in MT-4 cells (permissive). Nature of the assay: Antiviral activity assay: wild-type HIV-1 in permissive MT4 cells, reverse transcriptase activity in culture supernatants. It counts as cell-based.
Where [3] appears, read: Human immunodeficiency virus 1, H9, read-out: Antiviral activity (IC50 μM) H9, Table 2, wild-type HIV-1, non-permissive H9 cells.
Setting [4] is: Human immunodeficiency virus 1, H9, read-out: Antiviral activity (IC50 μM) H9 Cells, Table 4, wild-type HIV-1, non-permissive H9 cells.
[5] abbreviates: Human immunodeficiency virus 1, H9, read-out: Antiviral activity (IC50 μM) H9 Cells, Table 7, wild-type HIV-1, non-permissive H9 cells.
The mark [6] stands for this setting: Human immunodeficiency virus 1, H9, read-out: Antiviral activity (IC50 μM) H9 cells, Table 5, wild-type HIV-1, non-permissive H9 cells.
[7] abbreviates: Human immunodeficiency virus 1, H9, read-out: Antiviral activity (IC50 μM) H9 cells, Table 8, wild-type HIV-1, non-permissive H9 cells.
Where [8] appears, read: Human immunodeficiency virus 1, H9, read-out: Antiviral activity (IC50 μM) H9 cells, wild-type HIV-1 (HIV-1LAI), H9 cells (non-permissive), RT activity in culture supernatants, compounds 1 to 50 μM.
Setting [9] is: Human immunodeficiency virus 1, MT4, Table 2, wild-type HIV-1, permissive MT4 cells, read-out: Antiviral activity (IC50 μM) MT4.
The mark [10] stands for this setting: Human immunodeficiency virus 1, MT4, wild-type HIV-1 (HIV-1LAI), MT4 cells (permissive), RT activity in culture supernatants, compounds 1 to 50 μM, read-out: Antiviral activity (IC50 μM) MT4 cells.
The mark [11] stands for this setting: Human immunodeficiency virus 1, H9, read-out: IC50, anti-HIV-1 activity, non-permissive H9 cells.

Take `COC(=O)c1ccc(S(=O)(=O)c2ccccc2-c2cn(-c3cc(OC)ccc3OC)nn2)cc1` [Compound 5by, Methyl 4-((2-(1-(2,5-dimethoxyphenyl)-1H-1,2,3-triazol-4-yl)phenyl)sulfonyl)benzoate]: the IC50 in assay [1] (setting [3]), in assay [1] (setting [4]), in assay [1] (setting [5]), in assay [1] (setting [6]), in assay [1] (setting [7]) and in assay [1] (setting [8]) was 4.6 µM in each case. In addition, the IC50 in assay [2] (setting [9]) and in assay [2] (setting [10]) was > 50 µM throughout.
Consider `COc1cccc(F)c1-n1cc(-c2ccccc2S(=O)(=O)c2ccc(C(F)(F)F)cc2)nn1` [Compound 7dy, 1-(2-Fluoro-6-methoxyphenyl)-4-(2-((4-(trifluoromethyl)phenyl)sulfonyl)phenyl)-1H-1,2,3-triazole], for which the IC50 in assay [1] (setting [3]), in assay [1] (setting [6]), in assay [1] (setting [7]), in assay [1] (setting [8]), in assay [2] (setting [9]) and in assay [2] (setting [10]) was > 50 µM each time.
Take `COc1cccc(-n2cc(-c3ccccc3S(=O)(=O)c3ccc([N+](=O)[O-])cc3)nn2)c1OC` [Compound 3ay, 1-(2,3-Dimethoxyphenyl)-4-(2-((4-nitrophenyl)sulfonyl)phenyl)-1H-1,2,3-triazole]: the concentration for half-maximal inhibition (IC50) in assay [1] (setting [3]), in assay [1] (setting [6]), in assay [1] (setting [7]), in assay [1] (setting [8]), in assay [2] (setting [9]) and in assay [2] (setting [10]) was > 50 µM each time.
In the case of `COC(=O)c1ccc(S(=O)(=O)c2ccccc2-c2cn(-c3ccccc3OC)nn2)cc1` [Compound 2by, Methyl 4-((2-(1-(2-methoxyphenyl)-1H-1,2,3-triazol-4-yl)phenyl)sulfonyl)benzoate], the 50% inhibitory concentration (IC50) in assay [1] (setting [3]), in assay [1] (setting [6]), in assay [1] (setting [7]), in assay [1] (setting [8]), in assay [2] (setting [9]) and in assay [2] (setting [10]) was > 50 µM in each case.
On to `COC(=O)c1ccc(Sc2ccccc2-c2cn(-c3c(F)cccc3OC)nn2)cc1` [Compound 7bx, Methyl 4-((2-(1-(2-fluoro-6-methoxyphenyl)-1H-1,2,3-triazol-4-yl)phenyl)thio)benzoate], for which the IC50 in assay [1] (setting [3]), in assay [1] (setting [4]), in assay [1] (setting [5]), in assay [1] (setting [6]), in assay [1] (setting [7]) and in assay [1] (setting [8]) was 7.8 µM each time. The IC50 in assay [2] (setting [9]) and in assay [2] (setting [10]) was > 50 µM throughout.
Take `COc1cccc(F)c1-n1cc(-c2ccccc2Sc2ccc([N+](=O)[O-])cc2)nn1` [Compound 7ax, 1-(2-Fluoro-6-methoxyphenyl)-4-(2-((4-nitrophenyl)thio)phenyl)-1H-1,2,3-triazole]: the IC50 in assay [1] (setting [3]), in assay [1] (setting [4]), in assay [1] (setting [5]), in assay [1] (setting [6]), in assay [1] (setting [7]) and in assay [1] (setting [8]) was 3.9 µM each time. Further, the IC50 in assay [2] (setting [9]) and in assay [2] (setting [10]) was > 50 µM each time.
Consider `COC(=O)c1ccc(S(=O)(=O)c2ccccc2-c2cn(-c3cccc(OC)c3OC)nn2)cc1` [Compound 3by, Methyl 4-((2-(1-(2,3-dimethoxyphenyl)-1H-1,2,3-triazol-4-yl)phenyl)sulfonyl)benzoate], for which the IC50 in assay [1] (setting [3]), in assay [1] (setting [4]), in assay [1] (setting [5]), in assay [1] (setting [6]), in assay [1] (setting [7]) and in assay [1] (setting [8]) was 4.7 µM in each case. Besides, the IC50 in assay [2] (setting [9]) and in assay [2] (setting [10]) was > 50 µM in each case.
As to `COC(=O)c1ccc(Sc2ccccc2-c2cn(-c3cccc(OC)c3OC)nn2)cc1` [Compound 3bx, Methyl 4-((2-(1-(2,3-dimethoxyphenyl)-1H-1,2,3-triazol-4-yl)phenyl)thio)benzoate], the IC50 in assay [1] (setting [3]), in assay [1] (setting [4]), in assay [1] (setting [5]), in assay [1] (setting [6]), in assay [1] (setting [7]) and in assay [1] (setting [8]) was 8 µM in each case. Further, the IC50 in assay [2] (setting [9]) and in assay [2] (setting [10]) was > 50 µM throughout.
For `COc1ccccc1-n1cc(-c2ccccc2S(=O)(=O)c2ccc(C(F)(F)F)cc2)nn1` [Compound 2dy, 1-(2-Methoxyphenyl)-4-(2-((4-(trifluoromethyl)phenyl)sulfonyl)phenyl)-1H-1,2,3-triazole], the IC50 in assay [1] (setting [3]), in assay [1] (setting [4]), in assay [1] (setting [5]), in assay [1] (setting [6]), in assay [1] (setting [7]) and in assay [1] (setting [8]) was 4.8 µM each time. In addition, the IC50 in assay [2] (setting [9]) and in assay [2] (setting [10]) was > 50 µM throughout.
In the case of `COc1cccc(F)c1-n1cc(-c2ccccc2Sc2ccc(N)cc2)nn1` [Compound 7ex, 4-((2-(1-(2-Fluoro-6-methoxyphenyl)-1H-1,2,3-triazol-4-yl)phenyl)thio)aniline], the IC50 in assay [1] (setting [3]), in assay [1] (setting [6]), in assay [1] (setting [7]), in assay [1] (setting [8]), in assay [2] (setting [9]) and in assay [2] (setting [10]) was > 50 µM each time.
In the case of `COc1cccc(-n2cc(-c3ccccc3S(=O)(=O)c3ccc(C(=O)O)cc3)nn2)c1OC` [Compound 3fy, 4-((2-(1-(2,3-Dimethoxyphenyl)-1H-1,2,3-triazol-4-yl)phenyl)sulfonyl)benzoic Acid], the IC50 in assay [1] (setting [3]), in assay [1] (setting [4]), in assay [1] (setting [5]), in assay [1] (setting [6]), in assay [1] (setting [7]) and in assay [1] (setting [8]) was 1.4 µM each time. The IC50 in assay [1] (setting [11]) was 1 to 3 µM; in assay [2] (setting [9]), > 50 µM; in assay [2] (setting [10]), > 50 µM.
As for `COc1ccc(S(=O)(=O)c2ccccc2-c2cn(-c3c(F)cccc3OC)nn2)cc1` [Compound 7cy, 1-(2-Fluoro-6-methoxyphenyl)-4-(2-((4-methoxyphenyl)sulfonyl)phenyl)-1H-1,2,3-triazole], the IC50 in assay [1] (setting [3]), in assay [1] (setting [6]), in assay [1] (setting [7]), in assay [1] (setting [8]), in assay [2] (setting [9]) and in assay [2] (setting [10]) was > 50 µM throughout.
As for `COc1ccc(S(=O)(=O)c2ccccc2-c2cn(-c3ccc(OC)cc3OC)nn2)cc1` [Compound 4cy, 1-(2,4-Dimethoxyphenyl)-4-(2-((4-methoxyphenyl)sulfonyl)phenyl)-1H-1,2,3-triazole], the IC50 in assay [1] (setting [3]), in assay [1] (setting [6]), in assay [1] (setting [7]), in assay [1] (setting [8]), in assay [2] (setting [9]) and in assay [2] (setting [10]) was > 50 µM in each case.
`COc1cccc(OC)c1-n1cc(-c2ccccc2S(=O)(=O)c2ccc(N)cc2)nn1` [Compound 6ey, 4-((2-(1-(2,6-Dimethoxyphenyl)-1H-1,2,3-triazol-4-yl)phenyl)sulfonyl)aniline]: the IC50 in assay [1] (setting [3]), in assay [1] (setting [4]), in assay [1] (setting [5]), in assay [1] (setting [6]), in assay [1] (setting [7]) and in assay [1] (setting [8]) was 1.5 µM in each case. The half-inhibitory concentration (IC50) in assay [1] (setting [11]) was 1 to 3 µM; in assay [2] (setting [9]) it was > 50 µM; in assay [2] (setting [10]), > 50 µM.
For the molecule `COc1ccccc1-n1cc(-c2ccccc2S(=O)(=O)c2ccc(C(=O)O)cc2)nn1` [Compound 2fy, 4-((2-(1-(2-Methoxyphenyl)-1H-1,2,3-triazol-4-yl)phenyl)sulfonyl)benzoic acid], the IC50 in assay [1] (setting [3]), in assay [1] (setting [4]), in assay [1] (setting [5]), in assay [1] (setting [6]), in assay [1] (setting [7]) and in assay [1] (setting [8]) was 8.2 µM throughout. Moreover, the IC50 in assay [2] (setting [9]) and in assay [2] (setting [10]) was > 50 µM in each case.
Take `COc1cccc(OC)c1-n1cc(-c2ccccc2S(=O)(=O)c2ccc(C(=O)O)cc2)nn1` [Compound 6gy, 2-Hydroxy-N,N,N-trimethylethanaminium 4-((2-(1-(2,6-dimethoxyphenyl)-1H-1,2,3-triazol-4-yl)phenyl)sulfonyl)benzoate]: the IC50 in assay [1] (read-out: Antiviral activity (IC50 μM) H9, Table 2, wild-type HIV-1, non-permissive H9 cells) was > 50 µM; in assay [1] (read-out: Antiviral activity (IC50 μM) H9 cells, Table 5, wild-type HIV-1, non-permissive H9 cells), > 50 µM; in assay [1] (read-out: Antiviral activity (IC50 μM) H9 cells, Table 8, wild-type HIV-1, non-permissive H9 cells), > 50 µM; in assay [1] (read-out: Antiviral activity (IC50 μM) H9 cells, wild-type HIV-1 (HIV-1LAI), H9 cells (non-permissive), RT activity in culture supernatants, compounds 1 to 50 μM) it was > 50 µM.
For `COc1ccc(Sc2ccccc2-c2cn(-c3c(OC)cccc3OC)nn2)cc1` [Compound 6cx, 1-(2,6-Dimethoxyphenyl)-4-(2-((4-methoxyphenyl)thio)phenyl)-1H-1,2,3-triazole], the IC50 in assay [1] (setting [6]), in assay [1] (setting [7]) and in assay [1] (setting [8]) was > 50 µM each time.
As for `COc1cccc(F)c1-n1cc(-c2ccccc2Sc2ccc(C(F)(F)F)cc2)nn1` [Compound 7dx, 1-(2-Fluoro-6-methoxyphenyl)-4-(2-((4-(trifluoromethyl)phenyl)thio)phenyl)-1H-1,2,3-triazole], the IC50 in assay [1] (setting [6]), in assay [1] (setting [7]) and in assay [1] (setting [8]) was 10 µM throughout.
